# What was measured:
# lambsquarters = assay: Test C pre-/postemergence herbicide test; assay type: in vivo, Chenopodium album; details: for Lambsquarters plant response rating: 500 g ai/ha
# Summary of the method: (§1)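 Emerged plants at the 1- to 4-leaf stage (2–18 cm), or freshly planted seeds, received test chemicals in a non-phytotoxic solvent mixture with surfactant. Response was visually scored against controls after 12 to 14 days in the greenhouse, on a 0 (no effect) to 100 (complete control) scale.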
# rice = assay: Test C flooded paddy test; assay type: in vivo, Oryza sativa
# Summary of the method: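 Plants were grown to the 1- to 4-leaf stage (2–18 cm) and then treated postemergence, or grown to the 2-leaf stage for the flooded paddy test. They were held in a greenhouse for 12 to 14 days and then scored by eye against controls, where 0 is no effect and 100 is complete control.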
# ducksalad = assay: Test C flooded paddy test; assay type: in vivo, Heteranthera limosa
# [1] = tested on: common (oilseed) sunflower; assay: Test C pre-/postemergence herbicide test; assay type: in vivo, Helianthus annuus; details: for Plant response rating, Sunflower: visual, 12 to 14 days
# Summary of the method: as §1
# corn = assay: Test C pre-/postemergence herbicide test; assay type: in vivo, Zea mays; details: for Corn plant response rating: 500 g ai/ha
# Summary of the method: as §1
# yellow nutsedge = assay: Test C pre-/postemergence herbicide test; assay type: in vivo, Cyperus esculentus; details: for Nutsedge, Yellow plant response rating: 500 g ai/ha
# Summary of the method: as §1
# Surinam grass = assay: Test C pre-/postemergence herbicide test; assay type: in vivo, Urochloa decumbens; details: for Plant response rating, Surinam Grass: visual, 12 to 14 days; for Surinam Grass plant response rating: 500 g ai/ha
# Summary of the method: as §1
# [2] = tested on: smallflower umbrella sedge; assay: Test C flooded paddy test; assay type: in vivo, Cyperus difformis
# velvetleaf = assay: Test A pre-/postemergence herbicide test; assay type: in vivo, Abutilon theophrasti; details: for Velvetleaf plant response rating: Preemergence
# Summary of the method: (§2)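 Both application timings were run together: directed soil spray over freshly planted seeds in sandy loam, and runoff spray onto 2–10 cm seedlings. Evaluation after ~10 days in greenhouse used a 0–100 visual scale versus untreated controls.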
# woolly cupgrass = assay: Test C pre-/postemergence herbicide test; assay type: in vivo, Eriochloa villosa; details: for Cupgrass, Woolly plant response rating: 500 g ai/ha
# Summary of the method: as §1
# giant foxtail = assay: Test C pre-/postemergence herbicide test; assay type: in vivo, Setaria faberi; details: for Foxtail, Giant plant response rating: 500 g ai/ha
# Summary of the method: as §1
# morningglory [3] = assay: Test A pre-/postemergence herbicide test; assay type: in vivo, Ipomoea spp.; details: for Plant response rating, Morningglory: Postemergence; for Morningglory plant response rating: Preemergence
# Summary of the method: as §2
# morningglory [4] = assay: Test C pre-/postemergence herbicide test; assay type: in vivo, Ipomoea coccinea; set-up: key to Plant response rating, Morningglory: 0 = no effect, 100 = complete control; details: for Morningglory plant response rating: 500 g ai/ha
# Summary of the method: as §1
# [5] = 125 g ai/ha, scale 0 (no effect) to 100 (complete control), visual, 12 to 14 days, preemergence
# [6] = 250 g ai/ha, scale 0 to 100 (0 no effect, 100 complete control), visual, 12 to 14 days, preemergence
# [7] = Postemergence, 250 g ai/ha, scale 0 to 100, 0 no effect, 100 complete control
# [8] = Preemergence, scale 0 to 100, 0 no effect, 100 complete control
# [9] = postemergence, 62 g ai/ha, scale 0 to 100
# [10] = 62 g ai/ha, scale 0 to 100 (0 no effect, 100 complete control)
# [11] = 125 g ai/ha, scale of 0 to 100, 0 is no effect, 100 is complete control
# [12] = 250 g ai/ha, scale of 0 to 100, 0 is no effect, 100 is complete control
# [13] = 500 g ai/ha, visual rating after 12 to 14 days, scale 0 to 100 (0 no effect, 100 complete control)
# [14] = 125 g ai/ha, scale 0 (no effect) to 100 (complete control), preemergence
# [15] = 250 g ai/ha, scale 0 to 100 (0 no effect, 100 complete control), preemergence
# [16] = Postemergence, 125 g ai/ha, scale 0 to 100, 0 no effect, 100 complete control
# [17] = 500 g ai/ha, visual rating, 0 to 100 scale (0 no effect, 100 complete control)
# [18] = 2000 g ai/ha, 0 to 100 scale, 0 no effect, 100 complete control
structure (smiles),measurement,setting,value
CCNC(=O)c1cc(NC(=O)c2cc(C(C)(C)C)nn2CC)ccc1F [Compound 58],"Plant response rating (0 = no effect, 100 = complete control), Lambsquarters","lambsquarters; 62 g ai/ha, preemergence",100
same,"Plant response rating, Lambsquarters",lambsquarters; [5],100
same,"Plant response rating, Lambsquarters",lambsquarters; [6],100
same,Lambsquarters plant response rating,"lambsquarters; Postemergence, scale 0 to 100",90
same,"Plant response rating, Lambsquarters",lambsquarters; [7],90
same,Lambsquarters plant response rating,lambsquarters; [8],100
same,"Plant response rating, Lambsquarters",lambsquarters; [9],60
same,Rice plant response rating,rice; [10],0
same,Rice plant response rating,rice; [11],35
same,Rice plant response rating,rice; [12],35
same,"Plant response rating, Rice",rice; [13],75
same,Ducksalad plant response rating,ducksalad; [10],0
same,Ducksalad plant response rating,ducksalad; [11],15
same,Ducksalad plant response rating,ducksalad; [12],20
same,"Plant response rating, Ducksalad",ducksalad; [13],60
same,"Plant response rating (0 = no effect, 100 = complete control), Sunflower","[1]; 62 g ai/ha, preemergence",0
same,"Plant response rating, Sunflower",[1]; [14],0
same,"Plant response rating, Sunflower",[1]; [15],0
same,Sunflower plant response rating,"[1]; Preemergence, 500 g ai/ha, scale 0 to 100, 0 no effect, 100 complete control",0
same,"Plant response rating (0 = no effect, 100 = complete control), Corn","corn; 62 g ai/ha, preemergence",0
same,"Plant response rating, Corn",corn; [5],0
same,"Plant response rating, Corn",corn; [6],0
same,Corn plant response rating,"corn; Postemergence, scale 0 to 100",15
same,"Plant response rating, Corn",corn; [16],5
same,"Plant response rating, Corn",corn; [7],5
same,Corn plant response rating,corn; [8],0
same,"Plant response rating, Corn",corn; [9],0
same,"Plant response rating (0 = no effect, 100 = complete control), Nutsedge, Yellow","yellow nutsedge; 62 g ai/ha, preemergence",10
same,"Plant response rating, Nutsedge, Yellow",yellow nutsedge; [5],20
same,"Plant response rating, Nutsedge, Yellow",yellow nutsedge; [6],50
same,"Nutsedge, Yellow plant response rating","yellow nutsedge; Postemergence, scale 0 to 100",5
same,"Plant response rating, Nutsedge, Yellow",yellow nutsedge; [7],5
same,"Nutsedge, Yellow plant response rating",yellow nutsedge; [8],50
same,"Plant response rating, Nutsedge, Yellow",yellow nutsedge; [9],0
same,"Plant response rating (0 = no effect, 100 = complete control), Surinam Grass","Surinam grass; 62 g ai/ha, preemergence",10
same,"Plant response rating, Surinam Grass",Surinam grass; [14],55
same,"Plant response rating, Surinam Grass",Surinam grass; [15],80
same,Surinam Grass plant response rating,"Surinam grass; Postemergence, scale 0 to 100",25
same,Surinam Grass plant response rating,Surinam grass; [8],100
same,"Sedge, Umbrella plant response rating",[2]; [10],0
same,"Sedge, Umbrella plant response rating",[2]; [11],20
same,"Sedge, Umbrella plant response rating",[2]; [12],50
same,"Plant response rating, Sedge, Umbrella",[2]; [13],65
same,"Plant response rating, Velvetleaf","velvetleaf; Postemergence, 2000 g ai/ha, 0 to 100 scale, 0 no effect, 100 complete control",40
same,Velvetleaf plant response rating,velvetleaf; [17],70
same,Velvetleaf plant response rating,velvetleaf; [18],65
same,"Plant response rating (0 = no effect, 100 = complete control), Cupgrass, Woolly","woolly cupgrass; 62 g ai/ha, preemergence",0
same,"Plant response rating, Cupgrass, Woolly",woolly cupgrass; [5],40
same,"Plant response rating, Cupgrass, Woolly",woolly cupgrass; [6],60
same,"Cupgrass, Woolly plant response rating","woolly cupgrass; Postemergence, scale 0 to 100",20
same,"Plant response rating, Cupgrass, Woolly",woolly cupgrass; [16],5
same,"Plant response rating, Cupgrass, Woolly",woolly cupgrass; [7],20
same,"Cupgrass, Woolly plant response rating",woolly cupgrass; [8],80
same,"Plant response rating, Cupgrass, Woolly",woolly cupgrass; [9],5
same,"Plant response rating (0 = no effect, 100 = complete control), Foxtail, Giant","giant foxtail; 62 g ai/ha, preemergence",70
same,"Plant response rating, Foxtail, Giant",giant foxtail; [5],100
same,"Plant response rating, Foxtail, Giant",giant foxtail; [6],100
same,"Foxtail, Giant plant response rating","giant foxtail; Postemergence, scale 0 to 100",40
same,"Plant response rating, Foxtail, Giant",giant foxtail; [16],5
same,"Plant response rating, Foxtail, Giant",giant foxtail; [7],20
same,"Foxtail, Giant plant response rating",giant foxtail; [8],100
same,"Plant response rating, Foxtail, Giant",giant foxtail; [9],0
same,"Plant response rating, Morningglory","morningglory [3]; 500 g ai/ha, 0 to 100 scale, 0 no effect, 100 complete control",10
same,"Plant response rating, Morningglory",morningglory [3]; [18],0
same,Morningglory plant response rating,morningglory [3]; [17],20
same,Morningglory plant response rating,morningglory [3]; [18],40
same,"Plant response rating (0 = no effect, 100 = complete control), Morningglory","morningglory [4]; 62 g ai/ha, preemergence",10
same,"Plant response rating, Morningglory",morningglory [4]; [5],20
same,"Plant response rating, Morningglory",morningglory [4]; [6],50
same,Morningglory plant response rating,"morningglory [4]; Postemergence, scale 0 to 100",20
same,"Plant response rating, Morningglory",morningglory [4]; [7],10
same,Morningglory plant response rating,morningglory [4]; [8],80
same,"Plant response rating, Morningglory",morningglory [4]; [9],10

# — US20060069132A1, “Azolecarboxamide herbicides” (priority 2004, published 2006)
